Data as given in patent US20070078085A1, “Methods and compositions for the utilization and targeting of osteomimicry” (priority 2004, published 2007).

Tests used:
Format in all cases: cell-based, human
[1] = tested on: hBSP promoter; experiment: hBSP promoter-luciferase reporter activity in transfected cells; details: C4-2B cells; H-89 10^−8 to 10^−6 M for 2 h, then FSK 10^−6 M 16 h; concentration-dependent
Description: Plasmid Construction. Genomic DNA was used in the PCR of the 0.8-kb hOC promoter inserting KpnI and XhoI sites, subsequently cloned into pGL3-Basic-luciferase reporter vector (Promega, Madison, Wis.) as described before (9). The deletion constructs, ΔA [374 bp upstream of AP1/VDRE (AV) element], ΔTst-1 (POU-factor Tst-1/Oct-6 binding site), ΔCRE (cAMP-responsive element) and ΔIRF-1 (interferon regulatory factor-i binding site) in hOC promoter/pGL3 were generated by recombinant PCR technique. The point mutation plasmids in CRE (from -643 to -636 in hOC promoter, 5′-[…]-3′) were constructed with a QuikChange Site-Directed Mutagenesis Kit (Stratagene). […]
Transfection and Luciferase Activity Assay. […] For luciferase activity assay, 20 μl of the lysate supernatant was mixed with 100 μl of the luciferase substrate (Promega) and detected by a luminometer (Monolight 3010, luminometer PharMingen, San Diego, Calif.). For β-galactosidase activity assay, 100 μl of the supernatant was mixed with 100 μl of 2×β-galactosidase substrate [200 mM sodium phosphate buffer, pH 7.3, 2 mM MgCl2, 100 mM β-mercaptoethanol and 1.33 mg/ml o-nitrophenyl-β-D-galactopyranoside (ONPG)], and incubated at 37° C. for 30 min. β-galactosidase activity was detected by Microplate spectrophotometer (Molecular Devices Corp., Sunnyvale, Calif.) at 405 nm wavelength. […]

[2] = tested on: OC mRNA; experiment: Semi-quantitative RT-PCR of endogenous OC mRNA; details: LNCaP and C4-2B cells (data not shown)
Protocol: (§1) Reverse Transcription-Polymerase Chain Reaction (RT-PCR) Analysis. Total RNA was isolated from confluent monolayers of cells using RNAZol B (Teltest Inc., Friendswood, Tex.). Five μg of total RNA was used as template and 0.15 μg of random hexanucleotide primers were added for reverse transcription and amplification in a reaction volume of 20 μl, according to the manufacturer's instruction (Invitrogen, Carlsbad, Calif.). After RT reaction, 3-5 μl of the 1st-strand cDNA was used for PCR with a PTC-100 programmable Thermal Controller (MJ Research Inc.). The oligonucleotide primer sets used for PCR analysis of cDNA are: hOC, 5′-[…]-3′ (forward) and 5′-[…]-3′ (reverse); hBSP, 5′-[…]-3′ (forward) and 5′-[…]-3′ (reverse); and glyceraldehyde phosphate dehydrogenase (GAPDH), 5′-[…]-3′ (forward) and 5′-[…]-3′ (reverse), respectively. The thermal profile for hOC amplification is 30 cycles starting with denaturation 1 min at 94° C., followed by 1 min of annealing at 55° C. and 1 min of extension at 72° C. For hBSP amplification the thermal profile is 35 cycles starting with denaturation 1 min at 94° C., followed by 30 s of annealing at 48° C. and 40 s of extension at 72° C. The program for GAPDH amplification is 25 cycles starting with denaturation 30 s at 94° C., followed by 30 s of annealing at 60° C. and 1 min of extension at 72° C. The RT-PCR products were analyzed by 1.2% agarose gel electrophoresis. Quantity one-4.1.1 Gel Doc gel documentation software (Bio-Rad) or NIH image were used for quantification of hOC and hBSP mRNA expression normalized by GAPDH mRNA expression.

[3] = tested on: BSP mRNA; experiment: Semi-quantitative RT-PCR of endogenous BSP mRNA; details: LNCaP and C4-2B cells (data not shown)
Protocol: as §1

O=S(=O)(NCCNCC=Cc1ccc(Br)cc1)c1cccc2cnccc12 [H-89, N-[2-(p-bromocinnamylamino)ethyl]-5-isoquinolinesulfonamide]
inhibited: FSK-stimulated hBSP promoter activity [1] | induction of endogenous OC mRNA expression by ARCaP CM or FSK [2] | induction of endogenous BSP mRNA expression by ARCaP CM or FSK [3]
